Experimental data reported in patent US20230382924A1, “MODULATORS OF CYSTIC FIBROSIS TRANSMEMBRANE CONDUCTANCE REGULATOR” (VERTEX PHARMACEUTICALS INCORPORATED, priority 2020, published 2023).
Like-named read-outs stand apart in the source and are kept apart here. Each block holds one compound with its values, some of them ahead of it.

Legend:
[1] = from Cc1cccc(C)c1-c1cc(OC(CN)c2ccc(Br)cc2)nc(NS(=O)(=O)c2cccc(C(=O)O)c2)n1; amide bond; 13-membered ring; FDPP/DIEA; DMF; 36.8 mM; 25.0 °C; 1.0 h
[2] = amide bond, 13-membered ring
CFTR [3] = target: T1, CFTR (Homo sapiens, UniProt P13569); test: Membrane Potential Dye, Enteroid Assay A; format: cell-based; conditions: for EC50: read-out: Ent. A EC50
In short: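 Enteroid cells were loaded with methyl oxonol membrane potential dye (plus CaCCinh-A01 and Chicago Sky Blue) for 25 min at room temperature. Chloride transport was started by switching to chloride-free gluconate stimulation solution, with fluorescence read for 15 min. Activity was expressed as % of a triple-combination CFTR modulator control (3 μM, 3 μM, 300 nM acute).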
Target sequence in this assay (P13569 with tags, fused parts or gaps DEL508-508): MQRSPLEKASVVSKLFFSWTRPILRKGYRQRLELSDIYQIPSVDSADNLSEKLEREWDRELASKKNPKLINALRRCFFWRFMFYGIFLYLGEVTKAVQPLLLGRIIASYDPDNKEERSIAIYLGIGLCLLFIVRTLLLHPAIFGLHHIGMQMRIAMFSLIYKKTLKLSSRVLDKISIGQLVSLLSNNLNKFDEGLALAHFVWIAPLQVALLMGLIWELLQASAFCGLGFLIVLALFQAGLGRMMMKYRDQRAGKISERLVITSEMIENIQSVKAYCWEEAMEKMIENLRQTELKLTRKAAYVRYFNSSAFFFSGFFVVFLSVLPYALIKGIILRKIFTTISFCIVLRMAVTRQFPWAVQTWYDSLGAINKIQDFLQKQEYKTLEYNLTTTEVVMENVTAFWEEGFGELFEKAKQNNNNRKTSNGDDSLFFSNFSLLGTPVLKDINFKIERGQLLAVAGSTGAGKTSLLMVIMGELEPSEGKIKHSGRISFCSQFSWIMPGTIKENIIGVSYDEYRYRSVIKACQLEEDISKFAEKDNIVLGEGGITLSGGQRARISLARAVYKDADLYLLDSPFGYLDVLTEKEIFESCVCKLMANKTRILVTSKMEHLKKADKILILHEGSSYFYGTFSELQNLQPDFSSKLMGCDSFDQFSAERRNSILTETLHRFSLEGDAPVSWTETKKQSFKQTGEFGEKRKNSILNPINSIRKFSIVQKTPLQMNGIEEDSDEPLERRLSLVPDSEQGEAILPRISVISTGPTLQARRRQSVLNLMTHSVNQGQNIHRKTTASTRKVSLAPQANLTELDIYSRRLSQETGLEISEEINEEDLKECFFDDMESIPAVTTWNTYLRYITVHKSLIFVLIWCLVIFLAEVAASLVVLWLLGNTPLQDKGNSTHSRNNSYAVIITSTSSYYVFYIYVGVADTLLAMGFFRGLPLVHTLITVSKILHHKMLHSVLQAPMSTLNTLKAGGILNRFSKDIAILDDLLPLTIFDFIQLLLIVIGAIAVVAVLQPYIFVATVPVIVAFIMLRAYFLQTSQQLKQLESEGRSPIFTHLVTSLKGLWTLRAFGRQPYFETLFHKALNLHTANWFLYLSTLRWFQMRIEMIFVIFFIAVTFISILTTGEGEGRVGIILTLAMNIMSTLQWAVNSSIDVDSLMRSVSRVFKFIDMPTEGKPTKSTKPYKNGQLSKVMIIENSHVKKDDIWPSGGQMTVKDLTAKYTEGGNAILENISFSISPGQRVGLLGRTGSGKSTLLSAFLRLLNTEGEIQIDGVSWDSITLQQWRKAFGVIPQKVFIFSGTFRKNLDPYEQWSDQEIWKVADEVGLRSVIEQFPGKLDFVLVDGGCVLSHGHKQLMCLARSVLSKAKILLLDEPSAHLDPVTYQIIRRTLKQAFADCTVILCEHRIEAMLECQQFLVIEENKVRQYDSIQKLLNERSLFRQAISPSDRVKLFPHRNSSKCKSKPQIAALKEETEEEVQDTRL

CFTR [4] = target: T1, CFTR; test: Membrane Potential Dye, Enteroid Assay B; format: cell-based; conditions: for EC50: read-out: Ent. B EC50
In short: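 Enteroid cells loaded 25 min at room temperature with 20 μM methyl oxonol plus 30 μM CaCCinh-A01 and 30 μM Chicago Sky Blue, then switched to chloride-free gluconate buffer. Chloride transport was started by chloride-free stimulation solution, with fluorescence read for 15 min.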
Target sequence in this assay (P13569 with tags, fused parts or gaps DEL508-508): as above

F508del = target: T2, F508del (Homo sapiens, UniProt P13569, DEL508-508); test: 3T3 assay: membrane potential optical assay for F508del correction in NIH 3T3 cells; format: cell-based; conditions: Table 8
T2 construct: expressed in transfected cells
T2 sequence (P13569 with tags, fused parts or gaps DEL508-508): as above
In short: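 NIH 3T3 mouse fibroblasts stably expressing F508del were incubated with corrector compounds at a range of concentrations for 16–24 h at 37° C, then loaded with a redistribution voltage-sensing dye. A single addition of forskolin under a chloride gradient (gluconate-substituted bath, pH 7.4) gave the membrane-potential response, read by FLIPR.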

CFTR [5] = target: T1, CFTR; test: standard Ussing Chamber Assay for CFTR potentiator activity; format: cell-based
Target sequence in this assay (P13569 whole entry, species assumed): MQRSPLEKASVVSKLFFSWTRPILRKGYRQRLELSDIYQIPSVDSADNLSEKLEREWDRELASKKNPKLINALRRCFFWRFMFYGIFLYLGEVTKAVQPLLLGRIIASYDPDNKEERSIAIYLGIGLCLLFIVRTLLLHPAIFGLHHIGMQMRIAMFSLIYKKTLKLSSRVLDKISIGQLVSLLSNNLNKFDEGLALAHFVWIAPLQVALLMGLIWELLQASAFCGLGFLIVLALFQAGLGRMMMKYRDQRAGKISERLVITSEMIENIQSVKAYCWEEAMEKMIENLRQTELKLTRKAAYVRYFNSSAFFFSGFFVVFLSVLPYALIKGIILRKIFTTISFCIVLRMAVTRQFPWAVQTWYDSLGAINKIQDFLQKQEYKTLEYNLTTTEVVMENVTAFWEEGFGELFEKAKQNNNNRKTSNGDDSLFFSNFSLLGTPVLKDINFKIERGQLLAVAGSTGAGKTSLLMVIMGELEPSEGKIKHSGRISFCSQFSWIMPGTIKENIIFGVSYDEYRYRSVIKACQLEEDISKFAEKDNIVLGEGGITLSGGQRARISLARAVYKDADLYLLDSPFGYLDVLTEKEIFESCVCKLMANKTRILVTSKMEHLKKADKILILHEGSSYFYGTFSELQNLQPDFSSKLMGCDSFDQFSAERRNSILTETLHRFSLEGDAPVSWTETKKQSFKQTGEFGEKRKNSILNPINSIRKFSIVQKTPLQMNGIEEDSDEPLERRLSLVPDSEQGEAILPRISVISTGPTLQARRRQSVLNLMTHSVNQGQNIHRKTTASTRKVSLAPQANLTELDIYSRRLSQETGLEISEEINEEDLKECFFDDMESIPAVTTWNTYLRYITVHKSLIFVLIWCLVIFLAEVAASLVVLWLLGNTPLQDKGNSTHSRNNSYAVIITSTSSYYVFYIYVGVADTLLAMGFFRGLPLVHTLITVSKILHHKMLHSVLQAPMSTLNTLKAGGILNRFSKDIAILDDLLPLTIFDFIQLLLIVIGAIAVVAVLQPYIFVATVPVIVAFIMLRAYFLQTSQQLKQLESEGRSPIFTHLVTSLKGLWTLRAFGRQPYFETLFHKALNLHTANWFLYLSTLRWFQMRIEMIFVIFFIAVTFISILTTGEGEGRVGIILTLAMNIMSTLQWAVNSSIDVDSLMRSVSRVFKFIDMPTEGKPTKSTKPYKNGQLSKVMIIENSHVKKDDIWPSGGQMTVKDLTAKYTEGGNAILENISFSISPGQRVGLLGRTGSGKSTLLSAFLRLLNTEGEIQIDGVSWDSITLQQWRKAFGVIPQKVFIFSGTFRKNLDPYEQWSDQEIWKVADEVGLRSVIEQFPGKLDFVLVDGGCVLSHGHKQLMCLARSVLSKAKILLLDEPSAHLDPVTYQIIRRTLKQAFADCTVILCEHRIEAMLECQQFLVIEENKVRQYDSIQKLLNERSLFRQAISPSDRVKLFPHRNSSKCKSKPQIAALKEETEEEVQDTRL

Compound: Cc1cccc(C)c1-c1cc2nc(n1)NS(=O)(=O)c1cccc(c1)C(=O)NCC(c1ccc(Br)cc1)O2 (stereo not drawn)
ring closure, yield after HPLC [1]: 52% | ring closure, isolated yield ([2]; from Cc1cccc(C)c1-c1cc(OC(CN)c2ccc(Br)cc2)nc(NS(=O)(=O)c2cccc(C(=O)O)c2)n1, HATU/DIEA, DMF, 26.4 mM, 25.0 °C, 2.0 h): 25%

Compound: Cc1cccc(C)c1-c1cc2nc(n1)NS(=O)(=O)c1cccc(c1)C(=O)N[C@H](C)[C@@H](c1ccc(C(C)(C)C)cc1)O2 [Compound 38, (10R,11R)-10-(4-tert-Butylphenyl)-6-(2,6-dimethylphenyl)-11-methyl-9-oxa-2λ^6-thia-3,5,12,19-tetraazatricyclo[12.3.1.14,8]nonadeca-1(18),4,6,8(19),14,16-hexaene-2,2,13-trione]
Ent. A Max Activity (CFTR [3]; Table 8): +++ (+++ is >60%) | EC50 (CFTR [3]; Table 8): < 1 µM | Ent. B Max Activity (CFTR [4]; Table 8): +++ (+++ is >60%) | EC50 (CFTR [4]; Table 8): < 1 µM | Emax (F508del; NIH3T3, read-out: 3T3 Max Activity): > 60% | EC50 (F508del): < 1 µM | ring closure, isolated yield ([2]; from Cc1cccc(C)c1-c1cc(O[C@H](c2ccc(C(C)(C)C)cc2)[C@@H](C)N)nc(NS(=O)(=O)c2cccc(C(=O)O)c2)n1, HATU/NaOtBu, DMF/MeTHF, 52.6 mM, 25.0 °C, 16.0 h, 2 steps): 39%

CFTR modulatory activity (CFTR [5]): confirmed
Compound: C[C@@H]1CCCCC[C@](O)(C(F)(F)F)C2=NN=C(O2)c2nc(c(C(F)(F)F)cc2N)O1 [(6R,12R)-17-amino-12-methyl-6,15-bis(trifluoromethyl)-13,19-dioxa-3,4,18-triazatricyclo[12.3.1.12,5]nonadeca-1(18),2,4,14,16-pentaen-6-ol]

Ent. A Max Activity (CFTR [3]; Table 9): +++ (+++ is >60%) | EC50 (CFTR [3]; Table 9): 1 to 3 µM | Ent. B Max Activity (CFTR [4]; Table 9): +++ (+++ is >60%) | EC50 (CFTR [4]; Table 9): 1 to 3 µM
Compound: Cc1cccc(C)c1-c1cc2nc(n1)NS(=O)(=O)c1cccc(c1)C(=O)N[C@@H]1CN(C(=O)OC(C)(C)C)C[C@H]1O2 [Compound 57, tert-Butyl (3R,7R)-19-(2,6-dimethylphenyl)-9,15,15-trioxo-2-oxa-15λ^6-thia-5,8,16,18,21-pentaazatetracyclo[15.3.1.110,14.03,7]docosa-1(20),10(22),11,13,17(21),18-hexaene-5-carboxylate]
ring closure, isolated yield ([2]; from Cc1cccc(C)c1-c1cc(O[C@@H]2CN(C(=O)OC(C)(C)C)C[C@H]2N)nc(NS(=O)(=O)c2cccc(C(=O)O)c2)n1, HATU/DIEA, DMF, 17.1 mM, 72.0 h): 18%
